Experimental data taken from US8415342B2, “Besifloxacin ophthalmic composition for the treatment or control of infection” (Bausch & Lomb Incorporated, priority 2008, dated 2013).
In brackets after ≈: the same amount, converted by molar mass. Several values for one entry are separate records, joined by “and”; a condition that tells them apart may be missing. Identical values can stand only once. Like-named read-outs stand apart in the source and are kept apart here.

Columns and labels:
[1] = Study 424: tear fluid pharmacokinetics after single topical ocular instillation in healthy volunteers; assay type: in vivo, human
Method: This study was conducted to evaluate the ocular PK of besifloxacin in tear fluid after a single instillation of besifloxacin ophthalmic suspension, 0.6%, in both eyes of healthy volunteers and to compare the actual besifloxacin exposure to MICs of the most prevalent pathogens associated with bacterial conjunctivitis.
Healthy volunteers received a single instillation (37 μL by pipette) of besifloxacin ophthalmic suspension, 0.6%, in the conjunctival sac of each eye. A single tear sample was collected on a Schirmer tear strip from each healthy volunteer. […] Samples were analyzed using a validated LC/MS/MS method, and the LLOQ was 2 ng/mL (equivalent to approximately 0.2 μg/g for a 10-mg tear sample).
Mean tear concentration data were obtained from the per protocol (PP) set and the full analysis (FAS) set. For the purpose of this study, the PP set included all healthy volunteers with the exclusion of apparent outlier values. The FAS set included all healthy volunteers who received besifloxacin, and from whom all sampling data were available (no exclusion of outlier values).

[2] = Binding to proteins in human plasma; assay type: in vitro ADME
Description: The relationship between the concentration of besifloxacin in human tear fluid and the concentration required for antimicrobial activity was quantified by calculating the ratios of Cmax/MIC90 and AUC24/MIC90. For the purpose of calculating these PK/PD ratios, a PK model was used to simulate besifloxacin concentrations with a TID dosing regimen. An additional consideration in this analysis is the potential role of protein binding, which could effectively lower the concentration of unbound (free) besifloxacin. The inhibitory effect of protein binding on antibacterial efficacy has been reported for β-lactams; however, there is no general consensus about the role of protein binding on the antibacterial activity of fluoroquinolones (Bergogne-Berezin, 2002; Craig & Ebert, 1989; Drusano, 1988; Merrikin et al., 1983; Turnidge, 1999; Zeitlinger et al., 2008). […] In order to evaluate the potential theoretical maximum impact of protein binding on besifloxacin activity, Cmax/MIC90 and AUC24/MIC90 ratios were calculated based on the PK estimates for total (bound and free) and free (unbound) besifloxacin (Table 10).

[3] = molecular target: E. coli DNA gyrase (Escherichia coli, UniProt P0AES4+P0AES6); test: Catalytic inhibition of purified DNA gyrase; assay type: biochemical
E. coli DNA gyrase, sequence (P0AES4 whole entry, one chain of several): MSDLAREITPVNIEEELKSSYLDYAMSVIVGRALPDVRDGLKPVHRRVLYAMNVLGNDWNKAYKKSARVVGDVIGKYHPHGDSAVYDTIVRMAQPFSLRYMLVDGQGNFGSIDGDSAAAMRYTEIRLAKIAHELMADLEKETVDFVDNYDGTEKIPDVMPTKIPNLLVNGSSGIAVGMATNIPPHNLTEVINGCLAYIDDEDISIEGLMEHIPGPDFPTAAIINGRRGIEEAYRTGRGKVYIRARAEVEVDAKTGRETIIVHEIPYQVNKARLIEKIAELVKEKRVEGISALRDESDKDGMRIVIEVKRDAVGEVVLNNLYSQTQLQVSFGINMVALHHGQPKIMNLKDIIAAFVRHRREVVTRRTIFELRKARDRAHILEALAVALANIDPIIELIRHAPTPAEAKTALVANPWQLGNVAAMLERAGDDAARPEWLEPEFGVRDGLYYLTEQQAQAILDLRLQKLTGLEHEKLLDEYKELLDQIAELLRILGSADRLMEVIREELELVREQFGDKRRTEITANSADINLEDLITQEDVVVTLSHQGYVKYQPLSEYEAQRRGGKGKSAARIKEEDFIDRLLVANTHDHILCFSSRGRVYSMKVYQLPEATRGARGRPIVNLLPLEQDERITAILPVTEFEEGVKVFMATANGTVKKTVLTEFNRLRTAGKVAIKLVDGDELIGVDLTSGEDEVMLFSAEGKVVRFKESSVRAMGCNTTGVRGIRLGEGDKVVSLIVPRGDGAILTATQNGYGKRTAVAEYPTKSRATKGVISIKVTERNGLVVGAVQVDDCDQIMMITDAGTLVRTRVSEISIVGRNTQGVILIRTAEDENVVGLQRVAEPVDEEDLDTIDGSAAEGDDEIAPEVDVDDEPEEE

[4] = tested on: Anaerobic Bacteria; test: MIC against anaerobic bacteria (Table 7); assay type: cell-based
[5] = molecular target: S. pneumoniae DNA gyrase (Streptococcus pneumoniae serotype 4, UniProt P0A4L9+P72524); test: Cleavable complex stimulation (CC25), DNA gyrase; assay type: biochemical; conditions: S. pneumoniae enzymes; concentration that produces 25% linearization of the DNA
S. pneumoniae DNA gyrase, sequence (P72524 whole entry): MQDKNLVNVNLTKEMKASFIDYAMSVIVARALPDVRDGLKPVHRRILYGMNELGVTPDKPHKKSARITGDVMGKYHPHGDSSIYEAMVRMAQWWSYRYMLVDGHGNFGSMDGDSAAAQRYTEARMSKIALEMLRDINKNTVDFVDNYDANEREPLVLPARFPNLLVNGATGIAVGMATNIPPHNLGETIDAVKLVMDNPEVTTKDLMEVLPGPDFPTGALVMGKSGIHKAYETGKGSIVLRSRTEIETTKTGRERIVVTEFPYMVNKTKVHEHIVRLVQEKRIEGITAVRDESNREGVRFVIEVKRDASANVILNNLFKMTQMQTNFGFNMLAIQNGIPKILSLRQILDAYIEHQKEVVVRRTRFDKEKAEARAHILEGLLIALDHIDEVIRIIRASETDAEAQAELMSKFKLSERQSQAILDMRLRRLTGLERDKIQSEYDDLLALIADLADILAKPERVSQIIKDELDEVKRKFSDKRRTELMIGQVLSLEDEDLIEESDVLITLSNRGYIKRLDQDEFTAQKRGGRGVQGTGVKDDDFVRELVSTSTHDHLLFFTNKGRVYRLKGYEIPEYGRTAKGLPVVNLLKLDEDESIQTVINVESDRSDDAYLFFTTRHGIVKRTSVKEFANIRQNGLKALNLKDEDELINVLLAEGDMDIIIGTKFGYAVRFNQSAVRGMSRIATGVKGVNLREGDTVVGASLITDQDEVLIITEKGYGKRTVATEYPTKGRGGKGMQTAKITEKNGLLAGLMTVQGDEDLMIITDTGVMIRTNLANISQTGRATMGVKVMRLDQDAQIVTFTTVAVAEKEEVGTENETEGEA
S. pneumoniae DNA gyrase, sequence (P0A4L9 whole entry): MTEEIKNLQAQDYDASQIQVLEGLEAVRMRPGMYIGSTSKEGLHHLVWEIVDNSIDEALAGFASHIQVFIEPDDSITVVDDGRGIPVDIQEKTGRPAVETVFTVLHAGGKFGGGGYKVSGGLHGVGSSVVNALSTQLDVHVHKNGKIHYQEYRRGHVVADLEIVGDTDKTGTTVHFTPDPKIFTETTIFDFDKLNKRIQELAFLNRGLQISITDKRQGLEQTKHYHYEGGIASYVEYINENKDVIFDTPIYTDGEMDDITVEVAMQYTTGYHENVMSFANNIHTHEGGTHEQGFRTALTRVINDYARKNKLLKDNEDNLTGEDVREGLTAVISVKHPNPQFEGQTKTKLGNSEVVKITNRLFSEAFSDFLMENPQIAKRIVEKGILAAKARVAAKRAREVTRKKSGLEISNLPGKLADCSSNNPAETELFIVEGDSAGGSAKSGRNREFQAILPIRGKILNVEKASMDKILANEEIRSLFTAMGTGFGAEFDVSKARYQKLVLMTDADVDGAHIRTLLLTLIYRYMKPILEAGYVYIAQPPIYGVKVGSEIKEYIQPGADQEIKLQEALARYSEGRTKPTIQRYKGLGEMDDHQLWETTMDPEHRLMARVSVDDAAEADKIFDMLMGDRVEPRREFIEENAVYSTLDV

[6] = tested on: bacterial conjunctivitis; test: Study 433: besifloxacin ophthalmic suspension vs vehicle, TID 5 days; assay type: in vivo, human; conditions: N = 199; for Clinical Resolution (2 indices), No / Clinical Resolution (2 indices), Yes: mITT culture confirmed as randomized; for Microbial Eradication, No / Microbial Eradication, Yes: missing or discontinued imputed as no
[7] = tested on: genetically concordant pathogens of Visit 2 or Visit 3; test: Resistance development: PFGE and MIC testing of concordant isolate pairs from baseline and follow-up visits; assay type: cell-based
Method: PFGE testing was performed per standard procedures.
Isolate pairs from eyes with the same species at or above threshold at both baseline and follow-up visits were evaluated by Pulsed Field Gel Electrophoresis (PFGE) analysis to (i) distinguish new infections from recurrence and (ii) determine if any microbial eradication failures were correlated with antimicrobial resistance development during the study period.

[8] = tested on: bacterial conjunctivitis; test: Study 434: besifloxacin ophthalmic suspension vs Vigamox, TID 5 days; assay type: in vivo, human; conditions: for Clinical Resolution (2 indices), No / Clinical Resolution (2 indices), Yes: mITT culture-confirmed as treated; for Microbial Eradication, No / Microbial Eradication, Yes: missing or discontinued imputed as no, as treated
[9] = tested on: S. aureus topoisomerase mutants; test: MIC against defined topoisomerase mutants; assay type: cell-based; conditions: Staphylococcus aureus
[10] = tested on: H. influenzae; test: MIC and MBC:MIC ratio, recent ocular isolates; assay type: cell-based; conditions: H. influenzae (N = 40)
Description: (§1) The success of in vivo antimicrobial action depends to a large extent on the host's defense mechanisms, which ultimately sequester and kill the microorganisms that have been reduced by the bacteriostatic/bactericidal action of the antibacterial agent. Thus, it is also of interest to profile the bactericidal activity of antimicrobial agents. The assessment of in vitro bactericidal activity can be accomplished in multiple ways, for example, the time-kill method or the determination of the minimum bactericidal concentration (MBC). […] Bactericidal agents are characterized by low MBC:MIC ratios.

[11] = tested on: S. epidermidis; test: MIC and MBC:MIC ratio, recent ocular isolates; assay type: cell-based; conditions: S. epidermidis (N = 15)
Description: as §1

[12] = tested on: S. aureus; test: MIC and MBC:MIC ratio, recent ocular isolates; assay type: cell-based; conditions: S. aureus (N = 30)
[13] = both sexes, human, tear fluid, topical, 37 μL of 0.6% suspension per eye, tears, single instillation 0.6% suspension, healthy volunteers, FAS
[14] = both sexes, human, tear fluid, topical, 37 μL of 0.6% suspension per eye, tears, single instillation 0.6% suspension, healthy volunteers, PP
[15] = tears, single instillation 0.6% suspension, healthy volunteers, FAS
[16] = Bacteroides fragilis, Bacteroides fragilis (N = 20), read-out: MIC50
[17] = Bacteroides fragilis, Bacteroides fragilis (N = 20), read-out: MIC90
[18] = Clostridium perfringens (N = 21)
[19] = Clostridium perfringens, Clostridium perfringens (N = 21)
[20] = Cutibacterium acnes, Propionibacterium acnes (N = 21), read-out: MIC50
[21] = Cutibacterium acnes, Propionibacterium acnes (N = 21), read-out: MIC90
[22] = Fusobacterium spp. (N = 21), read-out: MIC50
[23] = Prevotella spp. (N = 20), read-out: MIC50
[24] = Prevotella spp. (N = 20), read-out: MIC90
[25] = Propionibacterium acnes (N = 21)
[26] = Visit 2 (Day 5 ± 1), primary endpoint
[27] = Haemophilus influenzae, recent ocular isolates
[28] = Staphylococcus epidermidis, recent ocular isolates
[29] = Staphylococcus aureus, recent ocular isolates

N[C@@H]1CCCCN(c2c(F)cc3c(=O)c(C(=O)O)cn(C4CC4)c3c2Cl)C1 [Besifloxacin, (R)-(+)-(3-amino-2,3,4,5,6,7-hexahydro-1H-azepin-1-yl)-8-chloro-1-cyclopropyl-6-fluoro-1,4,-dihydro-4-oxo-3-quinolinecarboxylic acid]
concentration at 24 h ([1]; both sexes, human, tear fluid, topical, 37 μL of 0.6% suspension per eye, 0.6% suspension, human tears, read-out: mean concentration in tears at 24 hours (C24h)): 1600 ± 2280 ng/g | concentration at 24 h ([1]; both sexes, human, tear fluid, topical, 37 μL of 0.6% suspension per eye, after a single dose of 0.6% suspension, humans, read-out: concentration in tears sustained for at least 24 hours): ≥ 1600 ng/g | Cmax [1, 13]: 610000 ± 540000 ng/g | Tmax [1, 13]: 0.17 h | half-life [1, 13]: 3.4 h | Cmax [1, 14]: 811000 ng/g | half-life [1, 14]: 3.51 h | time of mean maximum concentration in tears after instillation ([1]; single instillation, healthy volunteers): ≤ 10 min | AUC24 [1, 15]: 1232 µg·h/g | t1/2 [1, 15]: 3.43 h | AUC24 ([1]; tears, single instillation 0.6% suspension, healthy volunteers, PP): 1523 µg·h/g | bound to proteins in human plasma [2]: approximately 40% | IC50 ([3]; E. coli enzymes): 2.3 µM and 2.54 µM | inhibitory concentration for gyrase lower than for topoisomerase IV ([3]; E. coli enzymes): 10 fold | catalytic inhibition and cleavable complex stimulation relative to comparators ([3]; purified E. coli DNA gyrase and topoisomerase IV): equivalent to that of the ciprofloxacin and moxifloxacin comparators | MIC50 [4, 16]: 0.5 µg/mL (≈ 1.27 µM) | MIC90 [4, 17]: 1 µg/mL (≈ 2.54 µM) | MIC Range [4, 18]: 0.12 to 0.25 µg/mL | MIC50 [4, 19]: 0.25 µg/mL (≈ 0.635 µM) | MIC90 [4, 19]: 0.25 µg/mL (≈ 0.635 µM) | MIC50 [4, 20]: 0.25 µg/mL (≈ 0.635 µM) | MIC90 [4, 21]: 0.25 µg/mL (≈ 0.635 µM) | MIC Range ([4]; Fusobacterium spp. (N = 21)): 0.12 to 8 µg/mL | MIC50 [4, 22]: 0.25 µg/mL (≈ 0.635 µM) | MIC Range ([4]; Prevotella spp. (N = 20)): 0.06 to 16 µg/mL | MIC50 [4, 23]: 1 µg/mL (≈ 2.54 µM) | MIC90 [4, 24]: 4 µg/mL (≈ 10.2 µM) | MIC Range [4, 25]: 0.12 to 0.25 µg/mL | CC25 Gyrase [5]: 2.5 μM and 1 μg/mL | Clinical Resolution (2 indices), No ([6]; Visit 2 (Day 5 ± 1)): 109 (54.8) n (%) | Microbial Eradication, No ([6]; Visit 2 (Day 5 ± 1)): 17 (8.5) n (%) | Clinical Resolution (2 indices), Yes [6, 26]: 90 (45.2) n (%) | Microbial Eradication, Yes [6, 26]: 182 (91.5) n (%) | Clinical Resolution (2 indices), No ([6]; Visit 3 (Day 8 or 9)): 31 (15.6) n (%) | Clinical Resolution (2 indices), Yes ([6]; Visit 3 (Day 8 or 9)): 168 (84.4) n (%) | Microbial Eradication, No ([6]; Visit 3 (Day 8 or 9)): 23 (11.6) n (%) | Microbial Eradication, Yes ([6]; Visit 3 (Day 8 or 9)): 176 (88.4) n (%) | increase of MIC of Visit 2 or Visit 3 isolates versus baseline ([7]; Study 373, 47 genetically concordant isolate pairs): ≤ 2 fold | increase of MIC of Visit 2 or Visit 3 isolates versus baseline ([7]; Study 433, 122 genetically concordant isolate pairs): ≤ 2 fold | increase of MIC of Visit 2 or Visit 3 isolates versus baseline ([7]; Study 434, 65 genetically concordant isolate pairs): ≤ 2 fold | Clinical Resolution (2 indices), No ([8]; Visit 2 (Day 5 ± 1)): 105 (41.7) n (%) | Microbial Eradication, No ([8]; Visit 2 (Day 5 ± 1)): 17 (6.7) n (%) | Clinical Resolution (2 indices), Yes [8, 26]: 147 (58.3) n (%) | Microbial Eradication, Yes [8, 26]: 235 (93.3) n (%) | Clinical Resolution (2 indices), No ([8]; Visit 3 (Day 8 or 9)): 39 (15.5) n (%) | Clinical Resolution (2 indices), Yes ([8]; Visit 3 (Day 8 or 9)): 213 (84.5) n (%) | Microbial Eradication, No ([8]; Visit 3 (Day 8 or 9)): 32 (12.7) n (%) | Microbial Eradication, Yes ([8]; Visit 3 (Day 8 or 9)): 220 (87.3) n (%) | MIC ([9]; S. aureus Wild type): 0.03 µg/mL (≈ 0.0762 µM) | MIC ([9]; S. aureus parC S80F (or E84K)): 0.06 µg/mL (≈ 0.152 µM) | MIC ([9]; S. aureus parC S80F + gyrA S84L): 0.5 µg/mL | % of isolates with MBC:MIC ratio 1 [10]: 42.5% | % of isolates with MBC:MIC ratio 2 [10]: 50.0% | % of isolates with MBC:MIC ratio 4 [10]: 7.5% | % of isolates with MBC:MIC ratio 8 [10]: 0.0% | % of isolates with MBC:MIC ratio ≧16 [10]: 0.0% | MIC Range ([10]; recent ocular isolates): ≦0.004-0.03 μg/mL | MIC50 [10, 27]: 0.015 µg/mL | MIC90 [10, 27]: 0.015 µg/mL | % of isolates with MBC:MIC ratio 1 [11]: 73.3% | % of isolates with MBC:MIC ratio 2 [11]: 20.0% | % of isolates with MBC:MIC ratio 4 [11]: 6.7% | % of isolates with MBC:MIC ratio 8 [11]: 0.0% | % of isolates with MBC:MIC ratio ≧16 [11]: 0.0% | MIC Range ([11]; recent ocular isolates): 0.015 to 4 µg/mL | MIC50 [11, 28]: 0.03 µg/mL | MIC90 [11, 28]: 4 µg/mL | % of isolates with MBC:MIC ratio 1 [12]: 56.7% | % of isolates with MBC:MIC ratio 2 [12]: 23.3% | % of isolates with MBC:MIC ratio 4 [12]: 6.7% | % of isolates with MBC:MIC ratio 8 [12]: 13.3% | % of isolates with MBC:MIC ratio ≧16 [12]: 0.0% | MIC Range ([12]; recent ocular isolates): 0.015 to 4 µg/mL | MIC50 [12, 29]: 0.12 µg/mL | MIC90 [12, 29]: 4 µg/mL

COc1c(N2CCNC(C)C2)c(F)cc2c(=O)c(C(=O)O)cn(C3CC3)c12 (stereo not shown) [Gatifloxacin]
MIC Range ([4]; Bacteroides fragilis (N = 20)): 1 to 16 µg/mL | MIC50 [4, 16]: 2 µg/mL (≈ 5.33 µM) | MIC90 [4, 17]: 4 µg/mL (≈ 10.7 µM) | MIC Range [4, 18]: 0.5 to 1 µg/mL | MIC50 [4, 19]: 1 µg/mL (≈ 2.66 µM) | MIC90 [4, 19]: 1 µg/mL (≈ 2.66 µM) | MIC50 [4, 20]: 0.25 µg/mL (≈ 0.666 µM) | MIC90 [4, 21]: 0.5 µg/mL (≈ 1.33 µM) | MIC50 [4, 22]: 1 µg/mL (≈ 2.66 µM) | MIC90 ([4]; Fusobacterium spp. (N = 21), read-out: MIC90): 4 µg/mL (≈ 10.7 µM) | MIC50 [4, 23]: 8 µg/mL (≈ 21.3 µM) | MIC90 [4, 24]: 16 µg/mL (≈ 42.6 µM) | MIC Range [4, 25]: 0.25 to 0.5 µg/mL
